Measurements as given in US20240041042A1, “1-(PYRIDYL)-5-AZINYLPYRAZOLE DERIVATIVES, AND THEIR USE FOR CONTROL OF UNDESIRED PLANT GROWTH” (Bayer Aktiengesellschaft, priority 2020, published 2024).
Read-outs that look alike come from different tables or passages of the source. Blank lines part the entries; values can stand above or below the compound they belong to.

Tests used:
Format in all cases: in vivo
[1] = test system: Abutilon theophrasti (ABUTH); experiment: Post-emergence herbicidal action against ABUTH; settings: visual rating about 3 weeks after treatment vs untreated controls (100% = plants have died, 0% = like control plants)
Procedure, shortened: (§1)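 Post-emergence greenhouse spray, one-leaf stage, 600 l/ha water plus 0.5% additive; WP or EC formulations; application rates 320 g/ha or lower. Visual % damage vs untreated controls at ~3 weeks.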

[2] = test system: Alopecurus myosuroides (ALOMY); experiment: Post-emergence herbicidal action against ALOMY; settings: visual rating about 3 weeks after treatment vs untreated controls (100% = plants have died, 0% = like control plants)
Procedure, shortened: as §1

[3] = test system: Amaranthus retroflexus (AMARE); experiment: Post-emergence herbicidal action against AMARE
Procedure, shortened: as §1

Avena fatua (AVEFA) = experiment: Post-emergence herbicidal action against AVEFA; settings: 320 g/ha, visual rating about 3 weeks after treatment
Procedure, shortened: as §1

[4] = test system: Digitaria sanguinalis (DIGSA); experiment: Post-emergence herbicidal action against DIGSA; settings: visual rating about 3 weeks after treatment
Procedure, shortened: as §1

[5] = test system: Echinochloa crus-galli (ECHCG); experiment: Post-emergence herbicidal action against ECHCG
Procedure, shortened: as §1

Lolium rigidum (LOLRI) = experiment: Post-emergence herbicidal action against LOLRI
Procedure, shortened: as §1

[6] = test system: Matricaria inodora (MATIN); experiment: Post-emergence herbicidal action against MATIN
Procedure, shortened: as §1

[7] = test system: Pharbitis purpurea (PHBPU); experiment: Post-emergence herbicidal action against PHBPU
Procedure, shortened: as §1

[8] = test system: Polygonum convolvulus (POLCO); experiment: Post-emergence herbicidal action against POLCO
Procedure, shortened: as §1

Setaria viridis (SETVI) = experiment: Post-emergence herbicidal action against SETVI
Procedure, shortened: as §1

[9] = test system: Verconica persica (VERPE); experiment: Post-emergence herbicidal action against VERPE
Procedure, shortened: as §1

Viola tricolor (VIOTR) = experiment: Post-emergence herbicidal action against VIOTR
Procedure, shortened: as §1

Oryza sativa (ORYSA) = settings: crop plant compatibility
Procedure, shortened: (§2)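 Greenhouse crops in sandy loam sprayed post-emergence at the one-leaf stage, 2–3 weeks after sowing, with WP or EC formulations in water plus 0.5% additive at 600 l/ha. Damage rated visually about 3 weeks later versus untreated controls (0% = like control, 100% = dead); suffixes a–c denote different doses.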

[10] = test system: Triticum aestivum (TRZAS); settings: crop plant compatibility, 20 g/ha, effect vs untreated controls
Procedure, shortened: as §2

Zea mays (ZEAMX) = settings: for Post-emergence action against ZEAMX in %: crop plant compatibility, 80 g/ha, effect vs untreated controls
Procedure, shortened: as §2

[11] = 80 g/ha, visual rating about 3 weeks after treatment vs untreated controls (100% = plants have died, 0% = like control plants)
[12] = 320 g/ha, visual rating about 3 weeks after treatment
[13] = 20 g/ha, effect vs untreated controls
[14] = 80 g/ha, effect in comparison to untreated controls

SMILES: CCOC(=O)[C@@H](C)Oc1nn(-c2ncccc2F)c(-c2cncc(F)c2)c1Cl [Example I-145]
Post-emergence action against ABUTH in % ([1]; 80 g/ha): 90% | Post-emergence action against ABUTH in % ([1]; 320 g/ha): 90% | Post-emergence action against ALOMY in % ([2]; 80 g/ha): 80% | Post-emergence action against ALOMY in % ([2]; 320 g/ha): 90% | Post-emergence action against AMARE in % [3, 11]: 80% | Post-emergence action against AMARE in % [3, 12]: 80% | Post-emergence action against AVEFA in % (Avena fatua (AVEFA)): 90% | Post-emergence action against DIGSA in % ([4]; 320 g/ha): 90% | Post-emergence action against ECHCG in % ([5]; dosage 80 g/ha): 90% | Post-emergence action against ECHCG in % ([5]; dosage 320 g/ha): 90% | Post-emergence action against LOLRI in % (Lolium rigidum (LOLRI); dosage 80 g/ha): 90% | Post-emergence action against LOLRI in % (Lolium rigidum (LOLRI); dosage 320 g/ha): 90% | Post-emergence action against MATIN in % ([6]; dosage 80 g/ha): 80% | Post-emergence action against MATIN in % ([6]; dosage 320 g/ha): 90% | Post-emergence action against PHBPU in % ([7]; dosage 80 g/ha): 90% | Post-emergence action against PHBPU in % ([7]; dosage 320 g/ha): 90% | Post-emergence action against POLCO in % ([8]; dosage 80 g/ha): 90% | Post-emergence action against POLCO in % ([8]; dosage 320 g/ha): 90% | Post-emergence action against SETVI in % (Setaria viridis (SETVI); dosage 80 g/ha): 90% | Post-emergence action against SETVI in % (Setaria viridis (SETVI); dosage 320 g/ha): 90% | Post-emergence action against VERPE in % ([9]; 320 g/ha, VERPE): 90% | Post-emergence action against VERPE in % ([9]; dosage 80 g/ha): 90% | Post-emergence action against VIOTR in % (Viola tricolor (VIOTR); 80 g/ha): 90% | Post-emergence action against VIOTR in % (Viola tricolor (VIOTR); 320 g/ha): 90% | Post-emergence action against ORYSA in % (Oryza sativa (ORYSA); [13]): 0% | Post-emergence action against TRZAS in % [10]: 20%

SMILES: C[C@@H](Oc1nn(-c2ncccc2F)c(-c2cncc(F)c2)c1Cl)C(=O)O [Example I-165]
Post-emergence action against ABUTH in % ([1]; 80 g/ha): 90% | Post-emergence action against ABUTH in % ([1]; 320 g/ha): 90% | Post-emergence action against ALOMY in % ([2]; 320 g/ha): 100% | Post-emergence action against AMARE in % [3, 12]: 80% | Post-emergence action against AVEFA in % (Avena fatua (AVEFA)): 90% | Post-emergence action against DIGSA in % ([4]; 80 g/ha): 90% | Post-emergence action against DIGSA in % ([4]; 320 g/ha): 90% | Post-emergence action against ECHCG in % ([5]; dosage 80 g/ha): 90% | Post-emergence action against ECHCG in % ([5]; dosage 320 g/ha): 90% | Post-emergence action against LOLRI in % (Lolium rigidum (LOLRI); dosage 320 g/ha): 100% | Post-emergence action against MATIN in % ([6]; dosage 80 g/ha): 80% | Post-emergence action against MATIN in % ([6]; dosage 320 g/ha): 90% | Post-emergence action against PHBPU in % ([7]; dosage 80 g/ha): 80% | Post-emergence action against PHBPU in % ([7]; dosage 320 g/ha): 90% | Post-emergence action against POLCO in % ([8]; dosage 80 g/ha): 80% | Post-emergence action against POLCO in % ([8]; dosage 320 g/ha): 90% | Post-emergence action against SETVI in % (Setaria viridis (SETVI); dosage 80 g/ha): 90% | Post-emergence action against SETVI in % (Setaria viridis (SETVI); dosage 320 g/ha): 90% | Post-emergence action against VERPE in % ([9]; 320 g/ha, VERPE): 90% | Post-emergence action against VERPE in % ([9]; dosage 80 g/ha): 90% | Post-emergence action against VIOTR in % (Viola tricolor (VIOTR); 80 g/ha): 90% | Post-emergence action against VIOTR in % (Viola tricolor (VIOTR); 320 g/ha): 90% | Post-emergence action against ORYSA in % (Oryza sativa (ORYSA); [13]): 0% | Post-emergence action against TRZAS in % [10]: 20%

SMILES: COC(=O)COc1nn(-c2ncccc2C)c(-c2cncc(F)c2)c1Br [Example I-179]
Post-emergence action against ABUTH in % ([1]; 80 g/ha): 80% | Post-emergence action against ABUTH in % ([1]; 320 g/ha): 80% | Post-emergence action against ALOMY in % ([2]; 320 g/ha): 90% | Post-emergence action against AMARE in % [3, 11]: 90% | Post-emergence action against AMARE in % [3, 12]: 90% | Post-emergence action against AVEFA in % (Avena fatua (AVEFA)): 90% | Post-emergence action against DIGSA in % ([4]; 80 g/ha): 90% | Post-emergence action against DIGSA in % ([4]; 320 g/ha): 90% | Post-emergence action against ECHCG in % ([5]; dosage 80 g/ha): 90% | Post-emergence action against ECHCG in % ([5]; dosage 320 g/ha): 90% | Post-emergence action against MATIN in % ([6]; dosage 80 g/ha): 80% | Post-emergence action against MATIN in % ([6]; dosage 320 g/ha): 90% | Post-emergence action against PHBPU in % ([7]; dosage 80 g/ha): 80% | Post-emergence action against PHBPU in % ([7]; dosage 320 g/ha): 90% | Post-emergence action against POLCO in % ([8]; dosage 80 g/ha): 90% | Post-emergence action against POLCO in % ([8]; dosage 320 g/ha): 90% | Post-emergence action against SETVI in % (Setaria viridis (SETVI); dosage 80 g/ha): 90% | Post-emergence action against SETVI in % (Setaria viridis (SETVI); dosage 320 g/ha): 90% | Post-emergence action against VERPE in % ([9]; 320 g/ha, VERPE): 90% | Post-emergence action against VERPE in % ([9]; dosage 80 g/ha): 90% | Post-emergence action against VIOTR in % (Viola tricolor (VIOTR); 80 g/ha): 90% | Post-emergence action against VIOTR in % (Viola tricolor (VIOTR); 320 g/ha): 90% | Post-emergence action against ORYSA in % (Oryza sativa (ORYSA); [13]): 0% | Post-emergence action against ORYSA in % (Oryza sativa (ORYSA); [14]): 20% | Post-emergence action against TRZAS in % [10]: 0% | Post-emergence action against ZEAMX in % (Zea mays (ZEAMX)): 20%

Now from value to compound, other results behind:

Post-emergence action against ORYSA in % (Oryza sativa (ORYSA); [13]): 0% | Post-emergence action against ORYSA in % (Oryza sativa (ORYSA); [14]): 0% | Post-emergence action against TRZAS in % [10]: 0%
SMILES: CCOC(=O)COc1nn(-c2cccnc2C)c(-c2cncc(F)c2)c1Br [II-45]
Post-emergence action against ABUTH in % ([1]; 320 g/ha): 80% | Post-emergence action against ALOMY in % ([2]; 320 g/ha): 90% | Post-emergence action against AMARE in % [3, 12]: 80% | Post-emergence action against AVEFA in % (Avena fatua (AVEFA)): 90% | Post-emergence action against DIGSA in % ([4]; 320 g/ha): 80% | Post-emergence action against ECHCG in % ([5]; dosage 320 g/ha): 90% | Post-emergence action against MATIN in % ([6]; dosage 320 g/ha): 90% | Post-emergence action against PHBPU in % ([7]; dosage 320 g/ha): 90% | Post-emergence action against POLCO in % ([8]; dosage 80 g/ha): 80% | Post-emergence action against POLCO in % ([8]; dosage 320 g/ha): 90% | Post-emergence action against SETVI in % (Setaria viridis (SETVI); dosage 320 g/ha): 90% | Post-emergence action against VERPE in % ([9]; 320 g/ha, VERPE): 90% | Post-emergence action against VERPE in % ([9]; dosage 80 g/ha): 90% | Post-emergence action against VIOTR in % (Viola tricolor (VIOTR); 80 g/ha): 90% | Post-emergence action against VIOTR in % (Viola tricolor (VIOTR); 320 g/ha): 90%

Post-emergence action against ORYSA in % (Oryza sativa (ORYSA); [13]): 0% | Post-emergence action against ORYSA in % (Oryza sativa (ORYSA); [14]): 0% | Post-emergence action against ORYSA in % (Oryza sativa (ORYSA); 320 g/ha, effect in comparison to untreated controls): 0% | Post-emergence action against TRZAS in % [10]: 10% | Post-emergence action against ZEAMX in % (crop plant compatibility) (Zea mays (ZEAMX); 20 g/ha, ZEAMX, effect in comparison to untreated controls): 0% | Post-emergence action against ZEAMX in % (Zea mays (ZEAMX)): 20%
SMILES: Cc1ncccc1-n1nc(OCC(=O)OCC2CCCO2)c(Br)c1-c1cncc(F)c1 (stereo not shown) [II-43]
Post-emergence action against ABUTH in % ([1]; 320 g/ha): 80% | Post-emergence action against ALOMY in % ([2]; 320 g/ha): 100% | Post-emergence action against AMARE in % [3, 12]: 90% | Post-emergence action against AVEFA in % (Avena fatua (AVEFA)): 90% | Post-emergence action against DIGSA in % ([4]; 320 g/ha): 80% | Post-emergence action against ECHCG in % ([5]; dosage 320 g/ha): 90% | Post-emergence action against MATIN in % ([6]; dosage 320 g/ha): 80% | Post-emergence action against PHBPU in % ([7]; dosage 80 g/ha): 80% | Post-emergence action against PHBPU in % ([7]; dosage 320 g/ha): 90% | Post-emergence action against POLCO in % ([8]; dosage 320 g/ha): 80% | Post-emergence action against SETVI in % (Setaria viridis (SETVI); dosage 320 g/ha): 90% | Post-emergence action against VERPE in % ([9]; 320 g/ha, VERPE): 90% | Post-emergence action against VERPE in % ([9]; dosage 80 g/ha): 90% | Post-emergence action against VIOTR in % (Viola tricolor (VIOTR); 80 g/ha): 90% | Post-emergence action against VIOTR in % (Viola tricolor (VIOTR); 320 g/ha): 90%
